The text below walks through data of PMC3428523, “Phase I study of the Aurora B kinase inhibitor barasertib (AZD1152) to assess the pharmacokinetics, metabolism and excretion in patients with acute myeloid leukemia” (Cancer Chemotherapy and Pharmacology, 2012).

Like-named read-outs stand apart in the source and are kept apart here. Marks after values point to notes of the source that are not given here.

The test system of data set [1] is patients with AML. The data set can be described thus: Efficacy: response by International Working Group AML criteria. It counts as in vivo, human. The protocol: The primary objective was to assess the PK, metabolism and excretion profiles of barasertib and barasertib-hQPA following a single 7-day intravenous infusion, including a short infusion of [^14C]-barasertib, to patients with AML. Secondary objectives were to assess the safety and tolerability of barasertib and to evaluate preliminary efficacy by measurement of individual patient response (based on the International Working Group AML clinical response criteria).
(§1) Efficacy was assessed according to the International Working Group for AML trials criteria. Adverse events (AEs) were graded according to the National Cancer Institute Common Terminology Criteria for Adverse Events (CTCAE), version 3.0 [19].

The test system of data set [2] is patients with AML. Kind of data set: Safety: adverse events graded by CTCAE version 3.0. It counts as in vivo, human. The method, then: as §1
The nature of data set [3]: Plasma pharmacokinetics of barasertib and barasertib-hQPA (LC-MS/MS), 7-day continuous infusion in patients with AML. It counts as in vivo, human. The settings on record: for Time by which maximal plasma concentration was achieved: from start of infusion, first scheduled sample. The protocol: (§2) This was an open-label, single-arm, single-center, Phase I study. Patients received barasertib 1,200 mg as a 7-day continuous intravenous infusion every 28 days. On Day 2 of Cycle 1 only, patients also received [^14C]-barasertib (250 μCi), administered as a 2-hour infusion. Based on preclinical studies in rat and dog, it was expected that an adequate recovery of total radioactivity, and thus comprehensive metabolite profiling, would be achieved following the administration of the specified [^14C]-barasertib regimen (data on file). On the completion of the [^14C]-barasertib infusion, administration of non-radiolabeled barasertib resumed for the remainder of the 7-day infusion period. Following Cycle 1, each patient could receive subsequent treatment cycles until disease progression or any other discontinuation criteria were met. For Cycle 1, patients remained as in-patients for up to 9 days following the start of the 7-day barasertib infusion (7 days of dosing plus 2 additional days for observation). For all subsequent cycles, patients were hospitalized for the infusion period only.
(§3) Samples of blood, urine and feces were collected prior to study treatment and at various time points during Cycle 1. Blood samples were collected approximately 30 min prior to start of infusion (SOI) on Day 1 (barasertib) and Day 2 ([^14C]-barasertib), and then every 24 h until Day 10 (216 h) and on Days 14 and 18 (312 and 408 h, respectively). In addition, samples were collected on Day 2: 1 h following the start of the [^14C]-barasertib infusion ([^14C]-SOI), 5 min prior to the end of [^14C]-barasertib infusion ([^14C]-EOI), and at 15 min, 1, 2, 4 and 8 h following [^14C]-EOI; and on Day 8: 5 min prior to the end of the barasertib infusion (EOI), and at 15 min, 1, 2, 4, 6 and 10 h following EOI. A urine sample was collected within the 24-hour period prior to barasertib-SOI; feces samples within this 24-hour period were also collected. A urine sample was collected within the 24-hour period following barasertib-SOI. Further, urine and feces samples were collected within 24-hour periods following [^14C]-SOI: 0–24, 24–48, 48–72, 72–96, 96–120, 120–144, 144–168 and 168–192 h.
(§4) Barasertib and barasertib-hQPA concentrations in plasma and urine were measured using liquid chromatography tandem mass spectrometry following solid-phase extraction (plasma) or dilution (urine). Plasma measurements were determined by an independent bioanalytical facility (PRA International—Early Development Services, Assen, The Netherlands). The lower limit of quantification (LLOQ) was 0.25 ng/mL for plasma samples and 1.00 μg/mL for urine samples. Radioactivity in weighed aliquots of plasma, urine, feces, whole blood and dose material was determined by liquid scintillation counting (LSC). Radioactivity concentrations in plasma and whole blood, and percentage dose excreted in urine and feces samples were calculated using LabLogic Debra 5TM (version 5.4.10.51). For metabolite profiling, plasma samples that were collected 5 min prior to [^14C]-EOI for each patient were prepared using 5 % formic acid in acetonitrile; extraction efficiencies were all >91 %. Extracts were concentrated to dryness and reconstituted in water/acetonitrile (95:5 v/v). Pooled urine samples were freeze-dried and then reconstituted in methanol (duplicate extracts); extraction efficiencies were all >94 %. The two extracts were combined, concentrated to dryness and reconstituted in water/acetonitrile (95:5 v/v). Pooled feces samples were extracted with hexane followed by 3 × 5 % formic acid in acetonitrile; extraction efficiencies ranged from 86 to 98 %. The first two 5 % formic acid/acetonitrile extracts were combined, concentrated to a small volume and reconstituted in water/acetonitrile (95:5 v/v). Metabolite profiling was determined using high-performance liquid chromatography–radiometric (HPLC-RAD) methodology, with metabolites identified by HPLC coupled with mass spectrometry (HPLC-MSn).

The test system of another data set is AML patients. The settings on record: Phase I/II dose-escalation study; cited from earlier work.
The nature of data set [4]: Urine pharmacokinetics of barasertib and barasertib-hQPA (LC-MS/MS) in patients with AML. It counts as in vivo, human. The method, then:
as §2, §3
as §4, with “Pooled urine samples were freeze-dried and then reconstituted in methanol (duplicate extracts); extraction efficiencies were all >94 %. The two extracts were combined, concentrated to dryness and reconstituted in water/acetonitrile (95:5 v/v). Pooled feces samples were extracted with hexane followed by 3 × 5 % formic acid in acetonitrile; extraction efficiencies ranged from 86 to 98 %. The first two 5 % formic acid/acetonitrile extracts were combined, concentrated to a small volume and reconstituted in water/acetonitrile (95:5 v/v).” left out

Data set [5] deals with patients with AML. More on the design: method as in PMID 21976672, PMID 21565405. The settings on record: Phase I studies, Japanese and Western patients with AML; cited from earlier work.
The nature of data set [6]: Metabolite profiling of plasma, urine and feces by HPLC-RAD / HPLC-MSn. It counts as in vivo, human. The protocol: Samples of blood, urine and feces were collected prior to study treatment and at various time points during Cycle 1. […] A urine sample was collected within the 24-hour period prior to barasertib-SOI; feces samples within this 24-hour period were also collected. A urine sample was collected within the 24-hour period following barasertib-SOI.
as §4, with “The lower limit of quantification (LLOQ) was 0.25 ng/mL for plasma samples and 1.00 μg/mL for urine samples.” left out, “For metabolite profiling, plasma samples that were collected 5 min prior to [^14C]-EOI for each patient were prepared using 5 % formic acid in acetonitrile; extraction efficiencies were all >91 %.” left out, “Pooled urine samples were freeze-dried and then reconstituted in methanol (duplicate extracts); extraction efficiencies were all >94 %.” left out, “Pooled feces samples were extracted with hexane followed by 3 × 5 % formic acid in acetonitrile; extraction efficiencies ranged from 86 to 98 %.” left out

The mark [7] stands for this setting: Grade 3, barasertib 1,200 mg, n = 5.
The mark [8] stands for this setting: all grades, any cause, barasertib 1,200 mg, n = 5.
Where [9] appears, read: all grades, barasertib 1,200 mg, n = 5.
Setting [10] is: human, plasma, iv, 1200 mg, plasma, n=4, barasertib 1,200 mg 7-day continuous i.v. infusion, geometric mean (coefficient of variation), read-out: AUC(0–t).
Setting [11] is: plasma, n=4, barasertib 1,200 mg 7-day continuous i.v. infusion, geometric mean (coefficient of variation).
Setting [12] is: plasma collected 5 min prior to [14C]-EOI, % of chromatogram radioactivity.
Where [13] appears, read: excreta (urine and feces), % of administered dose.
The mark [14] stands for this setting: urine, n=5, arithmetic mean (standard deviation).

For `CCN(CCCOc1ccc2c(Nc3cc(CC(=O)Nc4cccc(F)c4)n[nH]3)ncnc2c1)CCOP(=O)(O)O` [Barasertib], in the data set with patients with AML [1] (four patients evaluable for response), the “Patients with no response” value is “three”. Moreover, in the data set on patients with AML [1] (four patients evaluable for response, barasertib 1,200 mg 7-day infusion every 28 days), the “Patients achieving complete response / complete remission” value was “One”. In addition, in the data set on patients with AML [1] (one patient), the “Duration of complete response” value was ~ 6 months. In the data set on patients with AML [2] (setting [7]), the “Febrile neutropenia, number of patients” value came to 2; the “Hypocalcemia, number of patients” value is recorded as 1; the “Hypomagnesemia, number of patients” value is given as 1; the “Stomatitis, number of patients” value is reported as 2. The “Febrile neutropenia, number of patients” value in the data set with patients with AML [2] (Grade 4, barasertib 1,200 mg, n = 5) was determined as 1. Also, in the data set on patients with AML [2] (setting [8]), the “Nausea, number of patients” value was found to be 4 and the “Stomatitis, number of patients” value is recorded as 4. In the data set on patients with AML [2] (setting [9]), the “Alopecia, number of patients” value was determined as 3; the “Constipation, number of patients” value turned out to be 2; the “Decreased appetite, number of patients” value is reported as 2; the “Diarrhea, number of patients” value came out at 2. Further, in the data set on patients with AML [2] (setting [9]), the “Fatigue, number of patients” value came out at 2; the “Febrile neutropenia, number of patients” value was found to be 3; the “Headache, number of patients” value was found to be 2; the “Hypocalcemia, number of patients” value is reported as 3. In addition, in the data set with patients with AML [2] (setting [9]), the “Hypomagnesemia, number of patients” value was determined as 2; the “Oral candidiasis, number of patients” value is reported as 2; the “Peripheral edema, number of patients” value was found to be 2; the “Vomiting, number of patients” value came out at 3. Moreover, in the data set with patients with AML [2] (at data cutoff, grade 5 multi-organ failure, considered unrelated to study treatment), the “Patients who had died due to an AE” value is “one”. Moreover, in the data set on patients with AML [2] (barasertib 1,200 mg, n = 5), the “Changes in vital signs or ECG measurements” value is on record as “no clinically relevant changes” and the “Patients who experienced grade ≥3 AEs” value is listed as “three”. The “Time after end of infusion at which plasma concentration reached the LLOQ” value in data set [3] (LLOQ 0.25 ng/mL plasma) is given as no more than 6 h. In data set [3], the “Time by which maximal plasma concentration was achieved” value was no more than 24 h. In addition, the AUC(0-t) in data set [3] (setting [10]) came to 13800 ng·h/mL. The “CSS, steady-state drug concentration” value in data set [3] (setting [11]) is 85.6 (0.5) ng/mL. Further, the “Maximum tolerated dose (MTD)” value in the data set with AML patients was 1,200 mg. Besides, the Urine concentration result in data set [4] (all time points, LLOQ 1.00 μg/mL urine) is given as “below LLOQ”. The Response rates with patients with AML [5] is 19–25%. The “Retrieved radioactivity (%), range” value in data set [6] (setting [12]) is on record as 17.26–26.53%.
Regarding Barasertib-hQPA N-oxide, in data set [6] (setting [13]), the “Retrieved radioactivity (%), range” value was 0.21–2.96%.
For `CCN(CCO)CCCOc1ccc2c(Nc3cc(CC(=O)O)[nH]n3)ncnc2c1` [Barasertib-hQPA desfluoroaniline], the “Retrieved radioactivity (%), range” value is 1.60–5.48% in data set [6] (setting [13]) and 2.05^e % in data set [6] (setting [12]).
For orientation: clearance means the volume of plasma or blood freed of the substance per unit of time. Broadly, the half-life is the time needed for the level to fall by half in the phase considered. A word on the AUC: it is the area under the concentration-time curve, a measure of exposure. A lower AUC goes with low exposure. For the compound `CCN(CCO)CCCOc1ccc2c(Nc3cc(CC(=O)Nc4cccc(F)c4)[nH]n3)ncnc2c1` [Barasertib-hQPA, barasertib-hydroxyquinazoline-pyrazol-aniline], in data set [3] (during the infusion period), the “Geometric mean plasma concentration of barasertib-hQPA relative to barasertib” value is “approximately threefold”. In addition, the “Time by which maximal plasma concentration was achieved” value in data set [3] is on record as no more than 24 h. For the same compound, the “Difference between volumes of distribution (apparent) at steady state versus terminal phase” value in data set [3] (human, in vivo) is given as “fourfold”. Besides, in data set [3] (human, intravenous, 1200 mg, plasma, n=4, arithmetic mean (standard deviation), read-out: CL, total clearance (converted)), the clearance was 523 mL/min. In data set [3] (human, intravenous, 1200 mg, plasma, n=4, arithmetic mean (standard deviation), read-out: t½, terminal half-life (converted)), the half-life is 66.3 h. Besides, the k el in data set [3] (human, intravenous, 1200 mg, plasma, n=4, arithmetic mean (standard deviation), read-out: λZ, slowest disposition rate constant (converted)) is 5.56e-06 s⁻¹. The AUC in data set [3] (human, iv, 1200 mg, plasma, n=4, barasertib 1,200 mg 7-day continuous i.v. infusion, geometric mean (coefficient of variation)) was found to be 40400 ng·h/mL. Besides, the Vd in data set [3] (human, plasma, intravenous, 1200 mg, plasma, n=4, arithmetic mean (standard deviation), read-out: VSS, volume of distribution (apparent) at steady state) is 669 L; in data set [3] (human, plasma, intravenous, 1200 mg, plasma, n=4, arithmetic mean (standard deviation), read-out: VZ, volume of distribution (apparent) during terminal (λZ) phase), 2800 L. Moreover, in data set [3] (human, plasma, intravenous, 1200 mg, 408 h (Day 18), read-out: Plasma concentration at final sampling point), the concentration at 408 h was roughly 4 ng/mL. Besides, the AUC(0-t) in data set [3] (human, plasma, iv, 1200 mg, plasma, n=4, barasertib 1,200 mg 7-day continuous i.v. infusion, geometric mean (coefficient of variation), read-out: AUC(0–192 h)) worked out at 38200 ng·h/mL; in data set [3] (setting [10]), 40100 ng·h/mL. The “CSS, steady-state drug concentration” value in data set [3] (setting [11]) is 226.8 (0.4) ng/mL. Also, in data set [3] (within 2 h post-EOI, rapid initial phase), the “Plasma concentration as fraction of the plasma steady-state concentration” value is “one-third”. In data set [4] (during the infusion period), the “Geometric mean urine concentration” value is 4 to 5 µg/mL. Moreover, the CL renal in data set [4] (human, urine and plasma, intravenous, 1200 mg, urine, n=5, arithmetic mean (standard deviation), read-out: CLR, renal clearance of drug from plasma (converted)) is 47.5 mL/min. Also, the “Ae, cumulative amount of unchanged drug excreted” value in data set [4] (setting [14]) is listed as 96.9 (47.2) mg. Besides, the “fe, fraction of drug excreted into urine” value in data set [4] (setting [14]) was 8.1 (3.9) %. In addition, the “Retrieved radioactivity (%), range” value in data set [6] (setting [13]) is reported as 13.15–33.70%; in data set [6] (excreta (urine and feces), % of administered dose, listed as barasertib-hQPA), 13.2–33.7%; in data set [6] (setting [12]), 48.27–56.61%.
